Source: US7795307B2, “Carbamoyl esters that inhibit cholinesterase and release pharmacologically active agents” (priority 2003, dated 2010)
pIC50: −log10 of the molar value.

Assays:
[1] = target: human recombinant acetylcholinesterase (Homo sapiens, UniProt P22303); test: biochemical; settings: 25° C., 30 minutes preincubation, 0.3 mM acetylthiocholine, Dixon plot
[2] = tested on: total cholinesterase activity in the brain; test: Total cholinesterase activity in brain homogenate of rats after i.p. injection; format: in vivo, Male Wistar rats; settings: for ChE inhibition: brain 3 hours after injection, relative to saline treated rats; for tolerability of the injected dose: i.p., male Wistar rats, dose giving a cholinergic behavioral effect with minimal side effects
Method: Animals were decapitated 3 hours after injection and the brains rapidly removed. The brain tissue was diced into small pieces, placed on ice and immediately homogenized with a Polytron PT1200 (Kinematic AG) in 10 ml ice cold Tris with 0.1% Triton-X and protease inhibitors. The protease inhibitors in the extraction buffer were Antipain (10 μM), Aprotinin (5 TIU/mg protein), Bestatin ([…]), Leupeptin (10 μM) and Pepstatin (1 μM). The final dilution of the homogenate in the final assay mixture was 120-fold.
Total cholinesterase activity was determined by a modification of the colorimetric method of Ellmann, et al. (Biochem. Pharmacol., 7:88-95 (1961)), as described above. Hydrolysis of acetylthiocholine was monitored indirectly by measurement of the formation of the conjugate between thiocholine and DTNB. Optical density at 405 nm was recorded during five (5) minutes employinga a microplate spectrophotometer (Polarstar, BMG Labtech), and plotted against time. The initial rates were calculated from the slope of the linear portion of the graph.
Cholinesterase activity was normalized for protein content of the homogenate. Relative cholinesterase activity was calculated as the ratio of normalized cholinesterase activity in a rat treated with a control compound or a carbamoyl ester over normalized cholinesterase activity in saline treated rats.

human recombinant acetylcholinesterase, sequence (P22303 32-614): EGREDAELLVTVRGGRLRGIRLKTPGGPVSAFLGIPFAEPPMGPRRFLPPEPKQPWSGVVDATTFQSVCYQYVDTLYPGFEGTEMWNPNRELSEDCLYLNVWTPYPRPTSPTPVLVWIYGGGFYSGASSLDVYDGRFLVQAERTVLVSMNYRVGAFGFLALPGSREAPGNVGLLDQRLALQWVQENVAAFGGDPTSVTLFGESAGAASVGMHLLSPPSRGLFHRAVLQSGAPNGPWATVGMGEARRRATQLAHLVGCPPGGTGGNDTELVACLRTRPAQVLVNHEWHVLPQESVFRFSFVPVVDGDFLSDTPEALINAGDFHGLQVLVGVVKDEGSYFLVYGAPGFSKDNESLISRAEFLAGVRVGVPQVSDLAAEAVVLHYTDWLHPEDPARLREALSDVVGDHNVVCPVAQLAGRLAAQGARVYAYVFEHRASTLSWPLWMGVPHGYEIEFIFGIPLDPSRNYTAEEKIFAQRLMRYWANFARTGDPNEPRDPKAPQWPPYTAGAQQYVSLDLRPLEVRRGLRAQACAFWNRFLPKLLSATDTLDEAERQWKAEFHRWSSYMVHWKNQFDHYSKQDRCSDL

Row | SMILES | pIC50 [1] | tolerability of the injected dose [2] | further results
1 | C[C@H](Cc1ccccc1)N(C)C(=O)Oc1ccc2c(c1)[C@]1(C)CCN(C)[C@@H]1N2C [Compound 13] | 5.26 |  | 
2 | C[C@H](Cc1ccccc1)NC(=O)Oc1cccc([C@H](C)N(C)C)c1 [Compound 9] |  | well-tolerated | ChE inhibition ([2]; 8 mg/kg i.p.): 41%
3 | C[C@H](Cc1ccccc1)N(C)C(=O)Oc1cccc([C@H](C)N(C)C)c1 [Compound 7] |  | well-tolerated | ChE inhibition ([2]; 2 mg/kg i.p.): 38%
4 | CCN(C)C(=O)Oc1cccc([C@H](C)N(C)C)c1 [Rivastigmine, reference compound] |  | well-tolerated | 
5 | C[C@H](Cc1ccccc1)NC(=O)Oc1ccc2c(c1)[C@]1(C)CCN(C)[C@@H]1N2C [Compound 14] | 6.60 |  | 
6 | Cc1ccccc1O[C@H](CCN(C)C(=O)Oc1cccc([C@H](C)N(C)C)c1)c1ccccc1 [Compound 5] | 6.34 |  | 
7 | C[C@@H](Cc1ccccc1)NC(=O)Oc1cccc([C@H](C)N(C)C)c1 [Compound 20] | 6.35 |  | 
